Assay results published in patent publication US11173124B2, “Oral delivery of GLP-1 peptide analogs” (MEDIMMUNE LIMITED, priority 2017, dated 2021).
Values after ≈ are worked out from the molar mass of the structure shown. Values joined by “and” are separate entries in the source; they are usually repeats but may differ in a detail not shown here. Identical values can stand only once. Like-named read-outs stand apart in the source and are kept apart here. Starred links: 1 amine or outer side, 2 acyl side, 3 side chain; linkers in the order of their positions; H or OH if unused. Non-standard residues stand in square brackets, D forms with d. Residues, ends and D or L forms follow the SMILES beside them. Groups on a side chain read outwards from the residue. *: point of attachment. γGlu = O=C(O)[C@H](CCC(=O)[*:2])N[*:1]; αMeF = C[C@](N)(Cc1ccccc1)C(=O)O; αMeK = C[C@](N)(CCCCN)C(=O)O; Lauroyl = CCCCCCCCCCCC(=O)*; αMeS = C[C@](N)(CO)C(=O)O; AEEA = NCCOCCOCC(=O)O; Aib = CC(C)(N)C(=O)O

Legend:
[1] = Canine study, MEDI7219 enterically coated tablets, enhancer ratios, amounts and peptide doses (Example 15); format: in vivo
Experimental: The next canine study (Table 22) was executed to confirm the performance of the formulation from the previous study (Example 14, Group 2 formulation, Table 21) at 1, 3 and 10 mg MEDI7219 (SEQ ID NO:2) peptide doses. The second goal was to explore the influence of formulation compositions designed around the Group 2 formulation with varying ratios and amounts of permeation enhancers in an enterically-coated tablet form on bioavailability and pharmacokinetic variability. The following formulation variables were tested: sodium chenodeoxycholate:propyl gallate ratios of 1:1, 1:2, and 1:3; 150, 300 and 450 mg of permeation enhancers at a 1:2 ratio; and 1, 3 and 10 mg peptide doses. All tablets were enterically coated with Eudragit formula dissolving at pH 5.5 and above.

[2] = physchem
Description: A known amount of the permeation enhancer, the peptide, or both were combined with increasing amounts of buffer until the permeation enhancer and/or the peptide were completely solubilized.

[3] = Rat intraduodenal study, MEDI7219 with new permeation enhancer formulations (Example 7); format: in vivo; conditions: for AUC(0-t) / Cmax / Tmax / half-life: plasma; for half-life: read-out: T ½ (converted)
Experimental: The following rat ID study compared oral bioavailability of the MEDI7219 (SEQ ID NO:2) peptide formulated with new permeation enhancer formulations after intraduodenal administration in rats. All test articles were prepared as solutions in 50 mM Tris, 150 mM mannitol, 0.02% polysorbate 80, pH 8.5. Table 8 gives the formulation and pharmacokinetic analysis details.

[4] = iv, 0.01 mg/kg, IV, 0.01 mg/kg, Group 1 control, 0.01 mg/mL peptide
[5] = other: intraduodenal (ID), 1 mg/kg, ID, 1 mg/kg, Group 2: 0.5 mg/mL peptide, 25 mg/mL Na CDC, 12.5 mg/mL Ethyl Gallate
[6] = other: intraduodenal (ID), 1 mg/kg, ID, 1 mg/kg, Group 3: 0.5 mg/mL peptide, 12.5 mg/mL Na CDC, 25 mg/mL Ethyl Gallate
[7] = other: intraduodenal (ID), 1 mg/kg, ID, 1 mg/kg, Group 4: 0.5 mg/mL peptide, 25 mg/mL Na CDC, 12.5 mg/mL Octyl Gallate
[8] = other: intraduodenal (ID), 1 mg/kg, ID, 1 mg/kg, Group 5: 0.5 mg/mL peptide, 25 mg/mL Chenodeoxycholic acid, 12.5 mg/mL PG
[9] = other: intraduodenal (ID), 1 mg/kg, ID, 1 mg/kg, Group 8: 0.5 mg/mL peptide, 25 mg/mL Na CDC, 12.5 mg/mL PG

CCCCCCCCCCCC(=O)N[C@@H](CCC(=O)NCCOCCOCC(=O)NCCOCCOCC(=O)NCCCC[C@H](NC(=O)[C@H](C)NC(=O)[C@@H](NC(=O)[C@](C)(Cc1ccccc1)NC(=O)[C@H](CCC(=O)O)NC(=O)[C@](C)(CCCCN)NC(=O)[C@H](C)NC(=O)[C@H](C)NC(=O)[C@H](CCC(=O)O)NC(=O)CNC(=O)[C@H](CCC(=O)O)NC(=O)[C@H](CC(C)C)NC(=O)[C@H](CCCCNC(=O)COCCOCCNC(=O)COCCOCCNC(=O)CC[C@H](NC(=O)CCCCCCCCCCC)C(=O)O)NC(=O)[C@H](CO)NC(=O)[C@](C)(CO)NC(=O)[C@@H](NC(=O)[C@H](CC(=O)O)NC(=O)[C@H](CO)NC(=O)[C@@H](NC(=O)[C@](C)(Cc1ccccc1)NC(=O)[C@H](CO)NC(=O)CNC(=O)[C@H](CCC(=O)O)NC(=O)C(C)(C)NC(=O)[C@@H](N)Cc1c[nH]cn1)[C@@H](C)O)C(C)C)[C@@H](C)CC)C(=O)N[C@H](C(=O)N[C@H](C(=O)N[C@@H](CCC(=O)O)C(=O)NCC(=O)NCC(N)=O)C(C)C)C(C)C)C(=O)O [MEDI7219, Free-H-[AIB]-EGS-[αMePhe]-TSDV-[αMeSer]-SK[(PEG2)2-γE-Lauroyl]-LEGEAA-[αMeLys]-E-[αMePhe]-IAK[(PEG2)2-γE-Lauroyl]-VVEGG-amide] (H-H[Aib]EGS[αMeF]TSDV[αMeS]SK([AEEA-AEEA-γGlu-Lauroyl])LEGEAA[αMeK]E[αMeF]IAK([AEEA-AEEA-γGlu-Lauroyl])VVEGG-NH2)
F ([1]; Intravenous, 0.05 mg/kg): 100%
F ([1]; Oral tablet, Group 10: 1 mg peptide, 100 mg Na CDC, 200 mg PG): 1.11%
F ([1]; Oral tablet, Group 11: 1 mg peptide, 100 mg Na CDC, 200 mg PG): 4.78%
F ([1]; Oral, Group 2 Enterically Coated tablet: 3 mg peptide, 100 mg Na CDC, 200 mg PG): 15.5%
F ([1]; Oral, Group 3 Enterically Coated tablet: 10 mg peptide, 100 mg Na CDC, 200 mg PG): 7.5%
F ([1]; Oral, Group 4 Enterically Coated tablet: 3 mg peptide, 75 mg Na CDC, 225 mg PG): 7.52%
F ([1]; Oral, Group 5 Enterically Coated tablet: 3 mg peptide, 50 mg Na CDC, 100 mg PG): 11.1%
F ([1]; Oral, Group 6 Enterically Coated tablet: 10 mg peptide, 50 mg Na CDC, 100 mg PG): 13.5%
F ([1]; Oral, Group 7 Enterically Coated tablet: 3 mg peptide, 150 mg Na CDC, 300 mg PG): 7.53%
F ([1]; Oral, Group 8 Enterically Coated tablet: 3 mg peptide, 150 mg Na CDC, 150 mg PG): 6.62%
F ([1]; Oral, Group 9 Enterically Coated tablet: 1 mg peptide, 100 mg Na CDC, 200 mg PG): > 4% and 4.2%
solubility ([2]; pH 5, aqueous buffer, thermodynamic from solid): < 10 mg/mL
solubility ([2]; pH 5.5): < 10 mg/mL
solubility ([2]; pH 6, aqueous buffer, thermodynamic from solid): 75 mg/mL (≈ 17.2 mM)
solubility ([2]; pH 7): 150 mg/mL (≈ 34.5 mM)
solubility ([2]; pH 7.5): 180 mg/mL (≈ 41.4 mM)
solubility as a function of pH (in words) ([2]; pH 7.5): increased in the range of pH 7.0 to 9.0
solubility ([2]; pH 8): 200 mg/mL (≈ 45.9 mM)
solubility ([2]; pH 9): > 200 mg/mL
F ([3]; ID, 1 mg/kg, Group 2: 0.5 mg/mL peptide, 25 mg/mL Na CDC, 12.5 mg/mL Ethyl Gallate): 1.11%
F ([3]; ID, 1 mg/kg, Group 3: 0.5 mg/mL peptide, 12.5 mg/mL Na CDC, 25 mg/mL Ethyl Gallate): 2.14%
F ([3]; ID, 1 mg/kg, Group 4: 0.5 mg/mL peptide, 25 mg/mL Na CDC, 12.5 mg/mL Octyl Gallate): 1.12%
F ([3]; ID, 1 mg/kg, Group 5: 0.5 mg/mL peptide, 25 mg/mL Chenodeoxycholic acid, 12.5 mg/mL PG, 1 mg/kg): 1.96% and 1.92%
F ([3]; ID, 1 mg/kg, Group 6: 0.5 mg/mL peptide, 25 mg/mL Ursodeoxycholic acid, 12.5 mg/mL PG): 0%
F ([3]; ID, 1 mg/kg, Group 7: 0.5 mg/mL peptide, 25 mg/mL Na CDC, 12.5 mg/mL PG, 25 mg/mL N-Acetyl Cysteine): 0%
F ([3]; ID, 1 mg/kg, Group 8: 0.5 mg/mL peptide, 25 mg/mL Na CDC, 12.5 mg/mL PG): 1.45%
F ([3]; IV, 0.01 mg/kg, Group 1 control, 0.01 mg/mL peptide): 100%
AUC(0-t) [3, 4]: 1030 ng·h/mL
Cmax [3, 4]: 187 ng/mL
Tmax [3, 4]: 0.083 h
half-life [3, 4]: 8.9 h
AUC(0-t) [3, 5]: 1110 ng·h/mL
Cmax [3, 5]: 175 ng/mL
Tmax [3, 5]: 0.25 h
half-life [3, 5]: 10.3 h
AUC(0-t) [3, 6]: 1970 ng·h/mL
Cmax [3, 6]: 282 ng/mL
Tmax [3, 6]: 0.25 h
half-life [3, 6]: 7.96 h
AUC(0-t) [3, 7]: 1170 ng·h/mL
Cmax [3, 7]: 240 ng/mL
Tmax [3, 7]: 0.25 h
half-life [3, 7]: 7.97 h
AUC(0-t) [3, 8]: 1890 ng·h/mL
Cmax [3, 8]: 546 ng/mL
Tmax [3, 8]: 0.25 h
half-life [3, 8]: 8.6 h
AUC(0-t) [3, 9]: 1540 ng·h/mL
Cmax [3, 9]: 140 ng/mL
Tmax [3, 9]: 2 h
half-life [3, 9]: 8.83 h
